Reference: patent US20220304945A1, “METHODS OF TREATING METABOLIC SYNDROME RELATED CONDITIONS USING RETINOIC ACID RECEPTOR AGONISTS” (Cornell University, priority 2014, published 2022)
“Also recorded” adds a separate entry of the source.

Columns and labels:
Format in all cases: in vivo, mouse
[1] = test system: TNF-α, RARβ2, LRAT mRNA; assay: Semi-quantitative PCR of kidney, HF-fed mice; conditions: HF diet mice 4 months
Text: Mice, diet, and drug treatment. WT male C57/BL6 male mice were maintained on either a standard laboratory chow-fed diet (CFD) with 13% kcal fat, (diet #5053, Lab Diet, Inc, St. Louis, Mo.) or a high fat, western style diet (HFD) with 60% kcals from fat, (diet #58126, Lab Diet, Inc., St. Louis, Mo.) for 4 months. One month after the start of the high fat diet treatment, the high fat diet group was further split into 2 groups for 3 months: i) high fat diet and the drinking water containing 1% DMSO; ii) high fat diet and the drinking water containing 1.5 mg/100 ml AC261066, a specific RARβ agonist. Then mice were sacrificed by cervical dislocation. Blood and various tissue samples were harvested.
Semi-Quantitative PCR. Total RNA was extracted from mouse tissues using TRIzol reagent (Life technologies) and (1 μg) was used to synthesize cDNA. cDNA synthesis was performed at 42° C. for 1 h in a final volume of 20 μl using qScript (Quanta, MD). Semi-quantitative PCR were performed Taq DNA polymerase (Invitrogen, CA). Three step PCR was run as follows: 94° C. for 30 s, 58-64° C. for 45 s for primer annealing and 72° C. for 1 min for primer extension. The number of cycles for each primer pair for amplification in the linear range was determined experimentally. PCR products were resolved on 2% agarose gels and visualized by staining with ehtidium bromide. Primers for gene expression used were as follows: […]

[2] = test system: HF-fed and genetically obese mice; assay: Tissue triglyceride analysis and H and E staining of liver, pancreas, kidney, muscle, adipose tissue
Text: Mice, diet, and drug treatment. Dietary Obesity Studies: Wild type (wt) male C57/BL6 male mice were maintained on either a standard laboratory chow-fed diet (Con) with 13% kcal fat, (diet #5053, Lab Diet, Inc, St. Louis, Mo.) or a high fat, western style diet (HFD) with 45% kcals from fat, (diet #58126, Lab Diet, Inc., St. Louis, Mo.) for 4 months. One month after the start of the HFD treatment, the Con and HFD groups werefurther split into 3 additional groups for […] to: i) remain on either Con or HFD and the drinking water containing 1% DMSO; ii) Con or HFD and drinking water containing 3.0 mg/100 ml AC261066, a specific RARβ agonist in 1% DMSO, or iii) Con or HFD and drinking water containing 3.0 mg/100 ml of AC55649, another specific RARβ agonist in 1% DMSO. All mice remained on their diets for 4 months. […]
Tissue Triglyceride Analysis: Total tissue lipids were extracted from using the Folch method. […] Tissue triglycerides were determined enzymatically using Triglycerides Reagent kit (Invitrogen, Life Technologies, Carlsbad, Calif., USA) according to the manufacture's protocol. Tissue triglycerides were normalized to tissue protein concentrations and reported as mean±standard error of the mean (S.E.M) and P-values were calculated using one-way analysis of variance followed by Bonferroni multiple comparison test post-hoc analysis.

[3] = test system: pancreatic islets (β-cells); assay: Pancreatic islet size (insulin immunofluorescence) and pancreatic insulin content (ELISA); conditions: Ob/Ob and Db/Db models
Description: Immunofluorescence and Immunostaining Microscopy-Paraffin embedded pancreatic tissue sections were incubated with antibodies against: insulin (mouse monoclonal 1:300, #1061, Beta Cell Biology Consortium). We utilized Alexa-fluor 488 conjugated anti-mouse secondary antibody (1:500) (Invitrogen, Carlsbad, Calif.) for immunofluorescence labeling of insulin followed by visualization using a Nikon TE2000 inverted fluorescence microscope (Nikon, Inc).
Pancreatic Insulin Measurements-Pancreatic insulin levels were measured in lysates from pancreatic tissues using an ultrasensitive Insulin ELISA Kit (Alpco, Inc. Salem, N.H.) as per the manufacturers' instructions. Insulin concentrations were normalized to pancreatic protein concentrations determined using the DC protein assay (Bio-Rad, Inc. Hercules, Calif.) according to the manufacturers' protocol. Endocrine hormones levels are reported as mean±standard error of the mean (S.E.M) and P-values calculated using one-way analysis of variance followed by Bonferroni multiple comparison test post-hoc analysis.
Measurement of Pancreatic Endocrine Cell Mass.—Pancreatic endocrine cell mass was determined using a direct point counting method as previously described. […]

[4] = test system: Ob/Ob and Db/Db mice; assay: Metabolic studies (body weight, GTT, insulin secretion, ITT) in Ob/Ob and Db/Db mice, 8 weeks

CCCCOCCOc1nc(-c2ccc(C(=O)O)c(F)c2)sc1C [AC261066]
kidney LRAT mRNA level [1]: restores | kidney RARβ2 mRNA level [1]: restores; also recorded: did not have decreased | kidney TNF-α mRNA level [1]: reduces | accumulation of liver, pancreas, kidney, muscle and adipose triglycerides [2]: reduces | pancreatic insulin content [3]: diminishes | number of large pancreatic islets (enlarged β-cells) ([3]; HF-fed mice): diminishes | pancreatic insulin secretion ([4]; Ob/Ob mice): decreased | body weights ([4]; genetically obese and diabetic Ob/Ob and Db/Db mice): significant reductions
